Key:
[1] = tested on: thymocytes and splenocytes; design: species or system mice; settings: mouse, in vivo
[2] = tested on: IL-6, CXCL10, IFN-γ and TNFα; design: species or system mice; settings: mouse, in vivo
[3] = tested on: splenocytes subsets; design: species or system mice; settings: mouse, in vivo
[4] = tested on: nNOS; design: species or system mice; settings: mouse, in vivo
[5] = tested on: RABV; design: species or system mice; settings: mouse, in vivo
[6] = mouse, in vivo
[7] = tested on: Fkbp51; design: species or system mice; settings: mouse, in vivo
[8] = tested on: RABV; design: species or system mice; settings: mouse, in vivo; remark: listed apart in the source
[9] = tested on: RABV CVS-NIV; design: species or system C57BL/6J mice; settings: mouse, in vivo
[10] = tested on: STAT3, STAT3-P, ERK1/2, phosphorylated-ERK1/2 (Thr202/Tyr204); design: species or system mice; settings: mouse, in vivo

## CNC1(C)C2CCC(C2)C1(C)C (stereo not drawn) [mecamylamine, N,2,3,3-Tetramethylbicyclo[2.2.1] heptan-2 amine]
[1]
  number of splenocytes: increased the number of splenocytes
[1]; ip, 2 mg/kg
  cellularity of the spleen (number of splenocytes): protects cellularity of the spleen
  number of thymocytes (RABV-mediated drop): no effect on the drop of thymocytes
[2]
  IFN-γ and TNFα transcription in the spinal cord: slowed-down
  IL6 or CXCL10 kinetic in the spinal cord: no effect
  cytokines expression at transcriptional level (IL-6, CXCL10, IFN-γ, TNFα) in the brain: did not modify significantly
  inflammatory cytokines expression in the liver: No difference
[3]
  main subsets of spleen cells (TCRαβ, CMH class II, CD4, CD8, plasmocytes expressing IgG): prevents the RABV-mediated disappearance
  numbers of CD4 T cells expressing CD25 and numbers of CD3 expressing CD69: restored
[4]
  nNOS transcription in the brain: block the nNOS decrease
[5]
  effect on RABV specific neutralizing antibodies: no effect
[6]
  side effects such as weight loss or behavior modification: does not induced obvious side effects
[7]
  transcription of the glucocorticoid-inducible gene Fkbp51: no effect
[8]
  RABV N protein transcripts among survivors: less viral transcripts than the mock-treated animals
[9]
  RABV pathogenesis: did not modify RABV pathogenesis
  clinical scores: decreases the severity of the clinical scores
  weight loss: interrupted the weight loss
[10]
  expression and phosphorylation of STAT3 and ERK1/2 in the brain: reduces expression and phosphorylation of STAT3 and ERK1/2 to levels similar to those observed in the non-infected brain

— patent EP2535046A1 (priority 2011, dated 2012)
